Measurements published in patent US9975906B2, “Tricyclic heterocycle derivatives having HIV replication inhibitory effect” (Shionogi & Co., Ltd., priority 2014, dated 2018).

Assays:
HIV (HTLV-IIIB strain) = experiment: HIV Replication Inhibition Assay; type: cell-based; details: Human immunodeficiency virus 1, MT4, 96 h, MT-4 cells, cultured four days, MTT, concentration at which cell cytotoxicity by virus is inhibited 50%
Protocol: HIV (HTLV-IIIB strain) persistent infected human T cell strain Molt-4 clone 8 was cultured in 10% Fetal Bovine Serum-containing RPMI-1640 medium and the supernatant was filtered, then the virus titer was measured and the solution was stored at −80° C. Each anti-human immunodeficiency virus active substance was diluted with the above cultured medium to the designated concentration, which was dispensed into 96 well micro plate by 50 μL. Next, a MT-4 cell suspended liquid was dispensed by 100 μL (2.5×10^4 cells), then the above HIV-containing supernatant diluted with the above cultured medium was added thereto by 50 μl (60 pfu (plaque forming unit)).
The obtained mixture was cultured at 37° C. in CO2 incubator for four days, then 3-(4,5-dimethylthiazole-2-yl)-2,5-diphenyltetrazolynium bromide (MTT) 5 mg/mL in PBS was added to each well by 30 μL, followed by 1 hr-cultivation. In this step, as formazan was precipitated by reduction of MTT in living cells, the cell supernatant was removed from all was by 150 μL, then a 150 μL of solution (10% Triton X-100 and 0.4% (v/v)-HCl containing isopropanol) was added thereto, followed by shaking with a plate mixer, to elute formazan. The formazan was measured with a microreader at OD: 560 nm and 690 nm (reference wavelength) and the result was compared with the reference. EC50 means the compound concentration at which cell cytotoxicity by virus is inhibited 50%.

Solubility Test = type: physicochemical; details: fassgf or other biorelevant, kinetic from dmso stock; 1% DMSO addition, artificial intestinal juice pH 6.8, 16 hours at 25° C.
Protocol: The solubility of the compound of the present invention was determined under 1% DMSO addition conditions. A 10 mmol/L solution of the compound was prepared with DMSO, and 6 μL of the solution was added to 594 μL of an artificial intestinal juice (: water and a 118 mL solution of 0.2 mol/L NaOH reagent are added to 250 mL of 0.2 mol/L potassium dihydrogen phosphate reagent to reach 1000 mL) with a pH of 6.8. The mixture was left standing for 16 hours at 25° C., and the mixture was vacuum-filtered. The filtrate was two-fold diluted with methanol/water=1/1(v/v), and the compound concentration in the filtrate was measured with HPLC or LC/MS/MS by the absolute calibration method.

BA Test = type: in vivo; details: plasma; oral vs intravenous administration, from AUCs, mouse or SD rats
Protocol: Materials and methods for studies an oral absorption (1) Animal: mouse or SD rats are used. (2) Breeding conditions: mouse or SD rats were allowed to freely take solid feed and sterilized tap water. (3) Dose and grouping: orally or intravenously administered at a predetermined dose; grouping is as follows (Dose depends on the compound) Oral administration: 1 to 30 mg/kg (n=2 to 3) Intravenous administration: 0.5 to 10 mg/kg (n=2 to 3) (4) Preparation of dosing solution: for oral administration, in a solution or a suspension state; for intravenous administration, in a solubilized state. (5) Administration method: in oral administration, forcedly administer into ventriculus with oralprobe; in intravenous administration, administer from caudal vein with a needle-equipped syringe. (6) Evaluation items: blood is collected over time, and the plasma concentration of drug is measured by LC/MS/MS. (7) Statistical analysis: regarding the transition of the plasma concentration, the area under the plasma concentration-time curve (AUC) is calculated by non-linear least squares program WinNonlin (Registered trademark), and the bioavailability (BA) is calculated from the AUCs of the oral administration group and intravenous administration group. (Result) Compound No. I-30: 45.2%

[1] = target: T1, human ether-a-go-go related gene (hERG) channel (Homo sapiens, UniProt Q12809); experiment: hERG Test; type: cell-based; details: compound concentration 5 μmol/L, HEK293 cells expressing hERG, patch clamp
T1 construct: expressed in transfected cells; host or cells: HEK293
Text: For the purpose of assessing risk of an electrocardiogram QT interval prolongation, effects on delayed rectifier K+ current (IKr), which plays an important role in the ventricular repolarization process of the compound of the present invention, was studied using HEK293 cells expressing human ether-a-go-go related gene (hERG) channel.
After a cell was retained at a membrane potential of −80 mV by whole cell patch clamp method using an automated patch clamp system (PatchXpress 7000A, Axon Instruments Inc.), IKr induced by depolarization pulse stimulation at +40 mV for 2 seconds and, further, repolarization pulse stimulation at −50 mV for 2 seconds was recorded. […] From the recording IKr, an absolute value of the tail peak current was measured based on the current value at the resting membrane potential using an analysis software (DataXpress ver. 1, Molecular Devices Corporation). Further, the inhibition relative to the tail peak current before application of the test substance was calculated, and compared with the vehicle-applied group (0.1% dimethyl sulfoxide solution) to access influence of the test substance on IKr. […]

T1 sequence (Q12809 whole entry): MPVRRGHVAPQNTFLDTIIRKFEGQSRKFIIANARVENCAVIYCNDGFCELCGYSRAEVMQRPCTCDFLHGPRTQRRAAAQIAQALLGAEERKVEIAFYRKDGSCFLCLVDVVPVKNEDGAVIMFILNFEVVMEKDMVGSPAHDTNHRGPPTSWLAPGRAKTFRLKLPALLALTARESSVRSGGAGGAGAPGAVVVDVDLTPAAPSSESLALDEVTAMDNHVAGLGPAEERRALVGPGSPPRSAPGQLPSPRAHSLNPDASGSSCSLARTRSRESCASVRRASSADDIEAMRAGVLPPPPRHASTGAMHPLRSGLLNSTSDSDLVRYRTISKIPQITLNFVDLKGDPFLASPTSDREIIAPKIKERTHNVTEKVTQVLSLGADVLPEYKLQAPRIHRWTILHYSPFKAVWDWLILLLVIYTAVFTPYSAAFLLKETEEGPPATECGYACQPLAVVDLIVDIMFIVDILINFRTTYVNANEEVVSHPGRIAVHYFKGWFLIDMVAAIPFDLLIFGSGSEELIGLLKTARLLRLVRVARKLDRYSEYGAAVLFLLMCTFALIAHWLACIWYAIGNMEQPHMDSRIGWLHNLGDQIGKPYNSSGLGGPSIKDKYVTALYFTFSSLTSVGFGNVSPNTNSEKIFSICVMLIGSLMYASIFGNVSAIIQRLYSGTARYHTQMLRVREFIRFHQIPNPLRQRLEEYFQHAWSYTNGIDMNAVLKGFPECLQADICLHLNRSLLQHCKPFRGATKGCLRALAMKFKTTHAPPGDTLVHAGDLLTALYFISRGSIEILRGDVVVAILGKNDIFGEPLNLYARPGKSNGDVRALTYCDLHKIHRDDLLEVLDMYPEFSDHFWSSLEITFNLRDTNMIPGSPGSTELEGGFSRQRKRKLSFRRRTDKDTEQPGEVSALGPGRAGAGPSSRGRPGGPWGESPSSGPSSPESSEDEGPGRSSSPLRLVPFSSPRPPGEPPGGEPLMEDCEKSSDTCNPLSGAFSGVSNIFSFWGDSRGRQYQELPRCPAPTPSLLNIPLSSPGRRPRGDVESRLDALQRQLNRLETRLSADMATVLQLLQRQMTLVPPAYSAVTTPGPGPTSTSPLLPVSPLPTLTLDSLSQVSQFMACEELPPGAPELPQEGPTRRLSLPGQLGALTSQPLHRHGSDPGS

| Structure (SMILES) | EC50 (HIV (HTLV-IIIB strain)) | also measured |
| --- | --- | --- |
| Cc1c(-c2c([C@H](OC(C)(C)C)C(=O)O)c(C)c3c4c2cc(-c2ccnc(-c5ccc6c(cnn6C)c5)c2)n4CCN3S(C)(=O)=O)cc(F)c2c1CCCO2 [Compound I-014] | 1.3 nM |  |
| Cc1ccc(-c2c([C@H](OC(C)(C)C)C(=O)O)c(C)c3c4c2cc(C(=O)NCCC(C)(C)C)n4CCN3S(C)(=O)=O)cc1 [Compound I-031] | 2.9 nM |  |
| Cc1ccc(-c2c([C@H](OC(C)(C)C)C(=O)O)c(C)c3c4c2cc(C(N)=O)n4CCN3C)cc1 [Compound I-044] | 44 nM |  |
| Cc1ccc(-c2c(C(OC(C)(C)C)C(=O)O)c(C)c3c4c2cc(-c2ccnc(N5CCN(C(C)C)CC5)n2)n4CCN3S(C)(=O)=O)cc1 (stereo not shown) [Compound I-009] | 32 nM |  |
| Cc1ccc(-c2c([C@H](OC(C)(C)C)C(=O)O)c(C)c3c4c2cc(C(=O)N(C)C)n4CCN3C)cc1 [Compound I-040] | 67 nM |  |
| CC(=O)N1CCn2c(-c3ccnc(-c4ccc5c(cnn5C)c4)c3)cc3c(-c4ccc5c(c4C)NCCO5)c([C@H](OC(C)(C)C)C(=O)O)c(C)c1c32 [Compound I-027] | 1.7 nM |  |
| Cc1c([C@H](OC(C)(C)C)C(=O)O)c(C2=CCC(C)(C)CC2)c2cc(-c3ccnc(-c4ccc5c(cnn5C)c4)c3)n3c2c1N(S(C)(=O)=O)CC3 [Compound I-015] | 4 nM |  |
| CC(=O)N1CCn2c(-c3ccnc(-c4ccc5c(cnn5C)c4)c3)cc3c(-c4ccc(C)cc4)c([C@H](OC(C)(C)C)C(=O)O)c(C)c1c32 [Compound I-013] | 3.4 nM |  |
| Cc1ccc(-c2c([C@H](OC(C)(C)C)C(=O)O)c(C)c3c4c2cc(-c2ccnc(N5CCN(C(C)C)CC5)c2)n4CCN3S(C)(=O)=O)cc1 [Compound I-017] | 9.1 nM | solubility at 16 h (Solubility Test): > 50 µM |
| Cc1ccc(-c2c([C@H](OC(C)(C)C)C(=O)O)c(C)c3c4c2cc(-c2ccnc(-c5ccc6c(cnn6C)c5)c2)n4CC(=O)N3)cc1 [Compound I-019] | 6 nM |  |
| Cc1ccc(-c2c([C@H](OC(C)(C)C)C(=O)O)c(C)c3c4c2cc(-c2ccnc(-c5ccc6c(cnn6C)c5)c2)n4CS(=O)(=O)N3C)cc1 [Compound I-029] | 2.4 nM |  |
| Cc1ccc(-c2c([C@H](OC(C)(C)C)C(=O)O)c(C)c3c4c2cc(-c2ccnc(-c5ccc6c(cnn6C)c5)c2)n4CC(=O)N3C)cc1 [Compound I-020] | 3.6 nM |  |
| Cc1ccc(-c2c([C@H](OC(C)(C)C)C(=O)O)c(C)c3c4c2cc(-c2nnc(-c5ccc6c(cnn6C)c5)o2)n4CCN3C)cc1 [Compound I-037] | 0.4 nM |  |
| Cc1ccc(-c2c([C@H](OC(C)(C)C)C(=O)O)c(C)c3c4c2cc(C(=O)NCCC(C)(C)C)n4CCN3C)cc1 [Compound I-035] | 5.2 nM |  |
| Cc1c(-c2c([C@H](OC(C)(C)C)C(=O)O)c(C)c3c4c2cc(-c2ccnc(-c5ccc6c(cnn6C)c5)c2)n4CCN3S(C)(=O)=O)ccc2c1NCCO2 [Compound I-022] | 4 nM |  |
| Cc1ccc(-c2c([C@H](OC(C)(C)C)C(=O)O)c(C)c3c4c2cc(-c2ccnc(-c5ccc6c(cnn6C)c5)c2)n4CS(=O)(=O)N3)cc1 [Compound I-025] | 89 nM |  |

| Structure (SMILES) | EC50 (HIV (HTLV-IIIB strain)) | also measured |
| --- | --- | --- |
| CC(=O)N1CCn2c(-c3ccnc(-c4ccc5c(cnn5C)c4)c3)cc3c(C4=CCC(C)(C)CC4)c([C@H](OC(C)(C)C)C(=O)O)c(C)c1c32 [Compound I-026] | 3.7 nM |  |
| Cc1ccc(-c2c([C@H](OC(C)(C)C)C(=O)O)c(C)c3c4c2cc(-c2ccnc(-c5ccc6c(cnn6C)c5)c2)n4CCN3C)cc1 [Compound I-030] | 1.9 nM | bioavailability (BA Test): 45.2%; inhibition ratio (IKr tail peak current) [1]: 11.7% |
| Cc1c([C@H](OC(C)(C)C)C(=O)O)c(-c2ccc(Cl)cc2)c2cc(-c3ccnc(-c4ccc5c(cnn5C)c4)c3)n3c2c1N(S(C)(=O)=O)CC3 [Compound I-016] | 3.9 nM |  |
| Cc1ccc(-c2c([C@H](OC(C)(C)C)C(=O)O)c(C)c3c4c2cc(C(=O)N2CCC(c5ccccc5)CC2)n4CCN3S(C)(=O)=O)cc1 [Compound I-024] | 4.2 nM |  |
| CC(=O)N1CCn2c(-c3ccnc(-c4ccc5c(cnn5C)c4)c3)cc3c(-c4cc(F)c5c(c4C)CCCO5)c([C@H](OC(C)(C)C)C(=O)O)c(C)c1c32 [Compound I-018] | 1.1 nM |  |
| Cc1ccc(-c2c([C@H](OC(C)(C)C)C(=O)O)c(C)c3c4c2cc(-c2ccnc(-c5ccc6c(cnn6C)c5)c2)n4CC(C)N3S(C)(=O)=O)cc1 (stereo partly shown) [Compound I-023] | 0.82 nM |  |
| Cc1c(-c2c(C(OC(C)(C)C)C(=O)O)c(C)c3c4c2c(C)cn4CCN3S(C)(=O)=O)ccc2c1CCCO2 (single isomer, unassigned) [Compound I-006] | 14 nM |  |
| Cc1ccc(-c2c(C(OC(C)(C)C)C(=O)O)c(C)c3c4c2cc(-c2ccnc(-c5ccc6c(cnn6C)c5)c2)n4CCN3S(C)(=O)=O)cc1 (stereo not shown) [Compound I-008] | 5.9 nM |  |
| Cc1ccc(-c2c([C@H](OC(C)(C)C)C(=O)O)c(C)c3c4c2cc(-c2ccnc(-c5ccc6c(cnn6C)c5)c2)n4CCN3C(=O)CN(C)C)cc1 [Compound I-021] | 3.8 nM |  |
| Cc1ccc(-c2c([C@H](OC(C)(C)C)C(=O)O)c(C)c3c4c2cc(-c2nnc(C)o2)n4CCN3C)cc1 [Compound I-041] | 4.6 nM |  |
| Cc1ccc(-c2c(C(OC(C)(C)C)C(=O)O)c(C)c3c4c2cc(-c2ccnc(Cl)c2)n4CCN3S(C)(=O)=O)cc1 (stereo not shown) [Compound I-010] | 16 nM |  |
| Cc1ccc(-c2c([C@H](OC(C)(C)C)C(=O)O)c(C)c3c4c2cc(C(=O)NCc2ccccc2)n4CCN3S(C)(=O)=O)cc1 [Compound I-032] | 5.2 nM |  |
| CC(=O)N1CCn2c(-c3ccnc(-c4ccc5c(cnn5C)c4)c3)cc3c(-c4ccc(C)cc4)c(C(OC(C)(C)C)C(=O)O)c(C)c1c32 (stereo not shown) [Compound I-012] | 3.7 nM |  |
| CC(=O)N1CCn2c(-c3ccnc(-c4ccc5c(cnn5C)c4)c3)cc3c(-c4ccc(Cl)cc4)c([C@H](OC(C)(C)C)C(=O)O)c(C)c1c32 [Compound I-028] | 3.3 nM |  |
| Cc1ccc(-c2c([C@H](OC(C)(C)C)C(=O)O)c(C)c3c4c2cc(-c2ccnc(-c5ccc6c(cnn6C)c5)c2)n4CCN3S(C)(=O)=O)cc1 [Compound I-011] | 2.3 nM |  |
